Reference: patent US11780851B2, “LRRK2 inhibitors” (H. Lundbeck A/S, priority 2021, dated 2023)
Where two headings read alike, the source gives them in different places.

Tests used:
[1] = tested on: panel of 403 wild type kinases; assay: Broad kinase selectivity, Eurofins DiscoverX scanMAX panel; assay type: binding, primarily of human origin; conditions: screening concentration 100 nM; for Number of Hits: 403 non-mutant kinases
Protocol: Protein kinase profiling of the inhibitors (Fabian, M. A. et al. inhibitors. Nat. […] Selectivity Score or S-score is a quantitative measure of compound selectivity. It was calculated by dividing the number of kinases that compounds bind to by the total number of distinct kinases tested, excluding mutant variants. S=Number of hits/Number of assays. This value can be calculated using % Ctrl as a potency threshold (below) and provides a quantitative method of describing compound selectivity to facilitate comparison of different compounds.

[2] = Hepatocyte intrinsic clearance assay; assay type: in vitro ADME, human; conditions: human, pooled donor, cryopreserved hepatocytes, pH 7.4, 0.1 μM, 2 h at 37° C., 1×10^6 hepatocytes/mL; * measured on 3 separate occasions, ** on a single occasion
Outline: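 Test compound at 0.1 μM final (0.05% organic) incubated 2 h at 37° C with shaking in supplemented Leibovitz L-15 medium (pH7.4), 1×10^6 hepatocytes/mL final. Samples taken 1–120 min, quenched in acetonitrile, analyzed by LC-MS/MS. CLint derived from slope of % remaining versus time.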

[3] = Minipig B/P (brain disposition); assay type: in vivo, female Gottingen minipigs; conditions: female, Gottingen, mean ± stdev
Protocol: Brain disposition of Example 13 was evaluated in female Gottingen minipigs (n=3, body weight range 13-14 kg). […] At the end of infusion (2 h) the minipigs were sacrificed and terminal blood as well as brain samples were taken (n=3). Isolated plasma and brain homogenates were extracted by standard protein precipitation in acetonitrile, containing internal standard, followed by LC-MS/MS analysis using an optimized analytical method. Concentrations of test compound in plasma and brain were quantified against matrix matched calibration standards. The total plasma and brain concentration time data are presented in Table 6 alongside the calculated brain Kp (total brain concentration:total plasma concentration ratio).

[4] = Rat B/P (brain disposition); assay type: in vivo, male Sprague-Dawley rats; conditions: for concentration at 1 h / Kp at 1 h / Kp uu at 1 h: male, Sprague-Dawley, time point 1.0 h; for Kp at 1 h / Kp uu at 1 h: brain/plasma; for Kp at 1 h: n = 3; for Kp uu at 1 h: po
Outline: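 Male Sprague-Dawley rats (n=3, standard body weight) were used to assess brain disposition. Plasma and brain homogenates underwent protein precipitation with acetonitrile containing internal standard, then LC-MS/MS measurement using an optimized method. Compound levels were quantified against matrix-matched calibration standards, and brain Kp was calculated as total brain concentration divided by total plasma concentration.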

[5] = Free fraction in plasma (equilibrium dialysis); assay type: in vitro ADME, male Sprague-Dawley rat; conditions: rat plasma, 1 μM, 5 h at 37° C.
Outline: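 Equilibrium dialysis (12-14 kDa membrane) of male Sprague-Dawley rat or female Gottingen minipig plasma, or rat brain homogenate diluted 1:4, against 100 mM sodium phosphate pH 7.4, compound at 1 μM nominal (≤0.5% DMSO), 5 h at 37 °C. LC/MS-MS quantification; percent free calculated, with dilution factor 4 for brain.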

SMILES: [2H]C([2H])([2H])c1c2c(nn1C1CCOCC1)OCCCn1nc(Cl)c3cnc(nc31)N2 [Example 13, 8-Chloro-3-(methyl-d3)-2-(tetrahydro-2H-pyran-4-yl)-2,4,12,13-tetrahydro-11H-5,7-(azenometheno)dipyrazolo[3,4-b:5′,1′-g][1]oxa[4,6,8]triazacycloundecine]
- Selectivity Score ([1]; S(1): % Ctrl < 1): 0.002
- Number of Hits ([1]; S(1): % Ctrl < 1, hit is LRRK2 WT): 1
- Selectivity Score ([1]; S(10): % Ctrl < 10): 0.03
- Number of Hits ([1]; S(10): % Ctrl < 10): 12
- Selectivity Score ([1]; S(35): % Ctrl < 35): 0.094
- Number of Hits ([1]; S(35): % Ctrl < 35): 38
- CLint scaled at 0.1 μM [2]: 6 mL/min/kg
- concentration at 2 h ([3]; brain, IV bolus 0.28 mg/kg + IV infusion 0.60 mg/kg, time point 2.00 h, n = 3, read-out: CTotal, brain): 151 ± 11 ng/mL
- Kp at 2 h ([3]; intravenous, total brain:total plasma concentration ratio, time point 2.00 h, n = 3): 1.63 ± 0.08
- concentration at 0.083 h ([3]; plasma, IV bolus 0.28 mg/kg + IV infusion 0.60 mg/kg, time point 0.083 h, n = 3, read-out: CTotal, plasma): 95 ± 18 ng/mL
- concentration at 0.5 h ([3]; plasma, IV bolus 0.28 mg/kg + IV infusion 0.60 mg/kg, time point 0.50 h, n = 3, read-out: CTotal, plasma): 89 ± 20 ng/mL
- concentration at 1 h ([3]; plasma, IV bolus 0.28 mg/kg + IV infusion 0.60 mg/kg, time point 1.00 h, n = 3, read-out: CTotal, plasma): 91 ± 9 ng/mL
- concentration at 1.5 h ([3]; plasma, IV bolus 0.28 mg/kg + IV infusion 0.60 mg/kg, time point 1.50 h, n = 3, read-out: CTotal, plasma): 106 ± 13 ng/mL
- concentration at 1.83 h ([3]; plasma, IV bolus 0.28 mg/kg + IV infusion 0.60 mg/kg, time point 1.83 h, n = 3, read-out: CTotal, plasma): 105 ± 8 ng/mL
- concentration at 2 h ([3]; plasma, IV bolus 0.28 mg/kg + IV infusion 0.60 mg/kg, time point 2.00 h, n = 3, read-out: CTotal, plasma): 93 ± 11 ng/mL
- extent of brain penetration, classified from rat brain Kp,uu values ([4]; Table 8, brain free fraction from brain slice model): moderately high brain penetrant
- concentration at 1 h ([4]; brain, oral gavage 1 mg/kg, Table 8, read-out: Total brain concentration): 130 ± 27 ng/mL
- concentration at 1 h ([4]; brain, oral gavage 1 mg/kg, mean ± stdev, n = 3, read-out: Total brain concentration): 130 ± 27 ng/g
- concentration at 1 h ([4]; brain, oral gavage 3 mg/kg, Table 8, read-out: Total brain concentration): 597 ± 169 ng/mL
- concentration at 1 h ([4]; brain, oral gavage 3 mg/kg, mean ± stdev, n = 3, read-out: Total brain concentration): 597 ± 169 ng/g
- concentration at 1 h ([4]; brain, oral gavage 10 mg/kg, Table 8, read-out: Total brain concentration): 2030 ± 462 ng/mL
- concentration at 1 h ([4]; brain, oral gavage 10 mg/kg, mean ± stdev, n = 3, read-out: Total brain concentration): 2030 ± 462 ng/g
- Kp at 1 h ([4]; oral gavage 1 mg/kg, mean ± stdev): 1.76 ± 0.04
- Kp at 1 h ([4]; oral gavage 3 mg/kg, mean ± stdev): 1.74 ± 0.1
- Kp at 1 h ([4]; oral gavage 10 mg/kg, mean ± stdev): 1.3 ± 0.22
- Kp uu at 1 h ([4]; 1 mg/kg, oral gavage 1 mg/kg, brain free fraction from rat brain slice model): 0.54 ± 0.01
- Kp uu at 1 h ([4]; 1 mg/kg, oral gavage 1 mg/kg, fubrain from brain homogenate): 0.38 ± 0.01
- Kp uu at 1 h ([4]; 3 mg/kg, oral gavage 3 mg/kg, brain free fraction from rat brain slice model): 0.54 ± 0.03
- Kp uu at 1 h ([4]; 3 mg/kg, oral gavage 3 mg/kg, fubrain from brain homogenate): 0.38 ± 0.02
- Kp uu at 1 h ([4]; 10 mg/kg, oral gavage 10 mg/kg, brain free fraction from rat brain slice model): 0.4 ± 0.07
- Kp uu at 1 h ([4]; 10 mg/kg, oral gavage 10 mg/kg, fubrain from brain homogenate): 0.28 ± 0.05
- concentration at 1 h ([4]; plasma, oral gavage 1 mg/kg, mean ± stdev, n = 3, read-out: Total plasma concentration): 74 ± 17 ng/mL
- concentration at 1 h ([4]; plasma, oral gavage 3 mg/kg, mean ± stdev, n = 3, read-out: Total plasma concentration): 340 ± 78 ng/mL
- concentration at 1 h ([4]; plasma, oral gavage 10 mg/kg, mean ± stdev, n = 3, read-out: Total plasma concentration): 1640 ± 655 ng/mL
- fuplasma (% free) [5]: 32.0 % free
